Several values for one entry are separate records, joined by “and”; a condition that tells them apart may be missing. Equal values may be shown once.
Experiments:
Type in all cases: binding
[1] = test system: total STAT5 (STAT5a and STAT5b); assay: CETSA, total STAT5 in lysates from K562 cells; settings: K562 cell lysates, 100 μM
Method: (§1) One method by which binding of small molecules to their expected targets in cell lysates can be inferred is the cellular thermal shift assay (CETSA).^[ [23], [24] ^] This assay is based on the observation that reversible protein binding by a small molecule typically stabilizes the bound protein against thermal denaturation. […]
K562 cells (DSMZ) were cultured […]
in RPMI 1640 medium containing 10% FBS, 2 mM L-glutamine and penicillin/streptomycin. For whole-cell lysates, cells were harvested by centrifugation, washed once with ice-cold PBS and resuspended at 3 x 10^6 cells per 100 µl in TBS supplemented with EDTA-free Halt Protease Inhibitor Cocktail (Fisher Scientific). Cells were lysed using three freeze-thaw cycles using liquid nitrogen and a room-temperature water bath. […]
(§2) CETSA experiments were performed based on the published protocol.[8] […] The soluble fractions were analyzed by Western blotting.
(§3) Treated lysates were separated by SDS-PAGE on a 10% gel and transferred to nitrocellulose membrane using a TransBlot semi-dry blotting protocol (Bio-Rad Laboratories). Proteins of interest were detected using monoclonal rabbit primary antibodies (Cell Signaling), anti-rabbit-HRP-secondary antibody (Dako) and Pierce ECL Plus chemiluminescence reagent (Thermo Fisher). Bands were visualized using an ImageQuant system (GE Healthcare) and quantitated with ImageJ software (NIH).[9]

STAT4 = target: T1, STAT4 (Homo sapiens, UniProt Q14765); assay: CETSA, STAT4 in total cell lysates from NK-92 cells; settings: NK-92 cell lysates, 100 μM compound
T1 sequence (Q14765 1-748): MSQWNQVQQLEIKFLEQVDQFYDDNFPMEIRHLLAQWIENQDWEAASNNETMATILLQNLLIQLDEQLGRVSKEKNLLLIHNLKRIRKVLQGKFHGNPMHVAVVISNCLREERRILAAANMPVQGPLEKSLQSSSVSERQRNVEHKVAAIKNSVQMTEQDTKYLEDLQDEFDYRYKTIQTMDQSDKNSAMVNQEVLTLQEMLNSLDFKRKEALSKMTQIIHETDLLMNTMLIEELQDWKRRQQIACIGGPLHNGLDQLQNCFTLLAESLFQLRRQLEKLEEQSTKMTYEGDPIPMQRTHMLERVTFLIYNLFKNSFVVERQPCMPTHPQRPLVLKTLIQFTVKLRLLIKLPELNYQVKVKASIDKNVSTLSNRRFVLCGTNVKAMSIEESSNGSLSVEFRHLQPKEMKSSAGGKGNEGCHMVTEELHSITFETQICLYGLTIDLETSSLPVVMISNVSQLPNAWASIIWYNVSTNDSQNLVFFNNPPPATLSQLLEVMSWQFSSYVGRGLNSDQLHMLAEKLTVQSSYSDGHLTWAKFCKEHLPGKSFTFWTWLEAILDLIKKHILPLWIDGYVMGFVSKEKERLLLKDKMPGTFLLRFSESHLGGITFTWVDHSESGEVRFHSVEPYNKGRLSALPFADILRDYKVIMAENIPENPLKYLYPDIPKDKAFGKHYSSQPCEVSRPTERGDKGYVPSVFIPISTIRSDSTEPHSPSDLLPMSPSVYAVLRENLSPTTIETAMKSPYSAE
Method: as §1
NK-92 cells (DSMZ) were cultured in α-MEM containing 12.5% fetal bovine serum, 12.5% horse serum, 2 mM L-glutamine, penicillin/streptomycin antibiotics and 50 U/ml human recombinant IL-2 (all reagents from Gibco at Thermo Fisher). […]
whole-cell lysates, cells were harvested by centrifugation, washed once with ice-cold PBS and resuspended at 3 x 10^6 cells per 100 µl in TBS supplemented with EDTA-free Halt Protease Inhibitor Cocktail (Fisher Scientific). […]
as §2, §3

STAT3 = STAT3 (Homo sapiens, UniProt P40763); assay: CETSA, STAT3 in total cell lysates from NK-92 cells; parameters: the endogenous full‐length proteins (between 748 and 793 amino acids for STAT3/4/5a/5b); endogenous in cells; host or cells: NK-92 cells (DSMZ), whole-cell lysate; settings: NK-92 cell lysates, 100 μM
Source text: STAT3 was again chosen as a specificity control for CETSA analysis, because it had already been used as control in HTRF assays (Figure 2B), and because we had previously developed CETSA for STAT3 in NK‐92 lysates.^[ [11] ^] […] The relatively low thermal shifts obtained even with the high‐affinity control peptides are consistent with the fact that the SH2 domain of STATs only comprises a small proportion (≈100 amino acids) of the endogenous full‐length proteins (between 748 and 793 amino acids for STAT3/4/5a/5b).^[ [25] ^] […] The CETSA experiments were carried out in cell lysates, not in living cells, to account for the putative inability of PPADS and iso‐PPADS to cross the cell membrane owing to their large number of negative charges. […]
as §2, §3

Sequence of STAT3 (P40763 whole entry, species assumed, the tested form may be a part): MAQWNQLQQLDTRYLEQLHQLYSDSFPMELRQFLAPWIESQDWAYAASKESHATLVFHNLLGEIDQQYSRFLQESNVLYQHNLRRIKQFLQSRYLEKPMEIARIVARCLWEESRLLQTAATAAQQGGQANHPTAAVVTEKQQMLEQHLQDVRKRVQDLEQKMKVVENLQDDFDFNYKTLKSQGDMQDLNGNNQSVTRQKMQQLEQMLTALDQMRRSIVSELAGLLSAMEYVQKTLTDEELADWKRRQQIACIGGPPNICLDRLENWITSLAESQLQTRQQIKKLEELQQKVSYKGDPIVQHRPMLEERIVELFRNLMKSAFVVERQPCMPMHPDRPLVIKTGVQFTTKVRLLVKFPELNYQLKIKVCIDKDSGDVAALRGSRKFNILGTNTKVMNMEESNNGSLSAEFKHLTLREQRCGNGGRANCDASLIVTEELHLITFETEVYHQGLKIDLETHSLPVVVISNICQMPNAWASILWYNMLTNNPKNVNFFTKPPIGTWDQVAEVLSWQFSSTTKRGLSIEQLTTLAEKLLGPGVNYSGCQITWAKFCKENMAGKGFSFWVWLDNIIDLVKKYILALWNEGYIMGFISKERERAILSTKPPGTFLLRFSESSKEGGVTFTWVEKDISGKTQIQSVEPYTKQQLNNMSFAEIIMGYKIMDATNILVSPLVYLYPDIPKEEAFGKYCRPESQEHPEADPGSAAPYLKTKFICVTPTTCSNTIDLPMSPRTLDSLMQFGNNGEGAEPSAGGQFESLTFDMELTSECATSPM

Cc1nc(/N=N/c2ccc(S(=O)(=O)O)cc2S(=O)(=O)O)c(COP(=O)(O)O)c(C=O)c1O [PPADS, pyridoxalphosphate‐6‐azophenyl‐2',4'‐disulfonic acid]
ΔT agg of total STAT5 [1]: 2.7 °C
aggregation temperature of total STAT5 (T agg) ([1]; DMSO control 49.0 °C): 51.7 °C
increase of the aggregation temperature of STAT4 (ΔT agg) (STAT4): 1.1 °C
aggregation temperature of STAT4 (T agg) (STAT4; DMSO control 48.9 ± 0.4 °C): 50.0 ± 0.4 °C and 50.0 °C
increase of the aggregation temperature of STAT3 (ΔT agg) (STAT3): 0.57 °C
aggregation temperature of STAT3 (T agg) (STAT3; DMSO control 51.47 °C): 52.04 °C

Reference: paper PMC12442245, “Activity Analysis of the P2X Receptor Antagonist PPADS against Signal Transducer and Activator of Transcription Proteins” (Chembiochem, 2025)
